Test results as given in PMC7734798 (ACS Medicinal Chemistry Letters, 2020).

Assay: Rat plasma stability assay (LC-DAD-MS/MS)
Format: in vitro ADME
Conditions: 1 h of incubation at 37 °C
Description: Our aim was to develop plasma-stable conjugates that would be hydrolyzed in the brain. Selective localized hydrolysis of conjugates 1 and 2 would permit a CNS-targeted profile and less side effects. Thus, plasma stability is an important pharmacokinetic prerequisite for 1 and 2. As reported by stability assays performed by LC-DAD-MS/MS analysis (Figure 3), conjugates 1 and 2 are stable for more than 85% after 1 h of incubation at 37 °C in rat plasma. […] The mean plasma remaining fraction of the two conjugates after 1 h of incubation was compared by means of t test and a statistically relevant difference (p < 0.01) was observed.
Velp (Usmate, Italy) RX3 vortex mixer and an Elma (Singen, Germany) Sonic T310 Trans ultrasonic […]
Chromatographic runs were obtained on an Agilent (Palo Alto, Ca, US) ZORBAX SB-C18 column (50 × 2.1 mm I.D., 3.5 µm particles), maintained at room temperature and equipped with a guard column. […] For compound stability and hydrolysis studies, multiple reaction monitoring (MRM) acquisition mode was set up for both compounds 1 and 2, by flow-injection analysis directly in the MS source, in order to optimize ionization parameters and to select two exclusive MRM m/z transitions for each analyte, exploited for quantitative purposes and for qualitative confirmation, respectively. […]

SMILES | percentage remaining upon incubation in rat plasma [%]
CC/C=C\C/C=C\C/C=C\CCCCCCCC(=O)NCCNC(=O)C(CCC)CCC [compound 1] | 89
CC/C=C\C/C=C\C/C=C\CCCCCCCC(=O)NCCOC(=O)C(CCC)CCC [compound 2] | 85
